The values below are quoted from earlier work in patent publication US8877445B2, “Methods for identification of tumor phenotype and treatment” (Intelligent Oncotherapeutics, Inc., priority 2008, dated 2014).

Series [1] deals with patients.
In series [2] the test system is patients. The following applies: clinical phase I trial.
Another series has as its system melanoma cells. As to conditions: in vitro (Ghosh et al. 2005).
The target of series [3] is T1, Aurora A (Homo sapiens, UniProt O14965). The following applies: in vitro.
T1 sequence (O14965 whole entry): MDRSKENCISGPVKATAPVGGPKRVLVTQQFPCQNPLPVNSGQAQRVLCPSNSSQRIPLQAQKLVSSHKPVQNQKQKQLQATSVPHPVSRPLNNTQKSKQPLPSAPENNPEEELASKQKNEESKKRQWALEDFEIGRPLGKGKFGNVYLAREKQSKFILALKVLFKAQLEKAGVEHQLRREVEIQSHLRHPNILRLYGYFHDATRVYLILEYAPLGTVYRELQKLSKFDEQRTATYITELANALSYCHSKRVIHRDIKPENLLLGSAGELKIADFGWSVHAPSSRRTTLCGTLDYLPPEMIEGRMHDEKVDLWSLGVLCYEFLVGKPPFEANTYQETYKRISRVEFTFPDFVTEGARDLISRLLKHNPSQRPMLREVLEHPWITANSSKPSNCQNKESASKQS
The test system of series [4] is subcutaneous human tumor xenografts. The following applies: for mitotic accumulation and apoptosis in xenografts / tolerability of efficacious doses: mouse, in vivo; for tolerability of efficacious doses: po; for tumor growth: oral administration (MLN8237: repeated) at well tolerated doses.
In series [5] the target is T1, Aurora A. The following applies: cultured cells.
In series [6] the test system is cultured human tumor cells.
The target of a further series is aurora B (Homo sapiens, UniProt Q96GD4). The following applies: at efficacious concentrations.
aurora B, sequence (Q96GD4 whole entry): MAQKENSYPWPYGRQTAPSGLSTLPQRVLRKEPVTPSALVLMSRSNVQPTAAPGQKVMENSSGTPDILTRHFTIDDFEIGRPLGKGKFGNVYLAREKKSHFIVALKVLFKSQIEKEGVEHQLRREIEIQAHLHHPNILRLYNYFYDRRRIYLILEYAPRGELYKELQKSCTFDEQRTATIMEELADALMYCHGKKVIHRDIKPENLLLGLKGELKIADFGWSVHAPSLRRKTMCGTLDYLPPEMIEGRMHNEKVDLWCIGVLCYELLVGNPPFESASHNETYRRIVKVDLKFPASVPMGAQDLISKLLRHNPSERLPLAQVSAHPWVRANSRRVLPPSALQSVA
For series [7] the following is noted: in vivo.
The next series concerns cells. The following applies: reviewed in Agnese et al. 2007.
For the next series, the system named is human tumor types. As to conditions: in vivo, wide range of human tumor types (Pan et al. 2008).
For series [8], the system named is patients. The following applies: phase I; dose levels well below those which cause dose-limiting toxicity (ASCO 2008 abstract #3009).
Series [9] deals with leukemia, colon and pancreatic tumors.
The target of the next series is T2, FOXM1 (Homo sapiens, UniProt Q08050).
T2 sequence (Q08050 1-763): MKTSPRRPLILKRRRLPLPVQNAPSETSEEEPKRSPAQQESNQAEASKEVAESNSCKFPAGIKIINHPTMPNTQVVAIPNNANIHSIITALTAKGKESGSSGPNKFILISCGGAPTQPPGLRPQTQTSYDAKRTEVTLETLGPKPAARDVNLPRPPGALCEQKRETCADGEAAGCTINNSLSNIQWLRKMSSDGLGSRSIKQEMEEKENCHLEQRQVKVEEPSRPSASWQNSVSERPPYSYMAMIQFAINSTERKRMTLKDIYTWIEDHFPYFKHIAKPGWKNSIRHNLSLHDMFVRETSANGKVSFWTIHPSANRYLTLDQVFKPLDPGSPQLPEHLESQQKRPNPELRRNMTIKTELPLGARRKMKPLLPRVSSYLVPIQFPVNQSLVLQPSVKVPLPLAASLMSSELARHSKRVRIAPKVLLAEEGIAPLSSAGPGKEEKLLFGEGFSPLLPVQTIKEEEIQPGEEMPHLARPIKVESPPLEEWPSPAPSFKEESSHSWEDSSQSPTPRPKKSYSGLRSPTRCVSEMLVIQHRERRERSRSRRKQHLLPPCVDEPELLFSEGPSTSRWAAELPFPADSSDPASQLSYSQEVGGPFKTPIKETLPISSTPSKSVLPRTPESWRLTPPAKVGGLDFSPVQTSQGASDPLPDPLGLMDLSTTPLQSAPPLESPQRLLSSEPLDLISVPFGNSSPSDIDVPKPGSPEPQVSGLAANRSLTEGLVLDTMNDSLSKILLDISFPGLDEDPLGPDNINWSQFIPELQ

Where no end group is shown, it is not given here. [ ]: non-standard residue; d: D form.

Consider `CCN(CCCOc1ccc2c(Nc3cc(CC(=O)Nc4cccc(F)c4)n[nH]3)ncnc2c1)CCOP(=O)(O)O` [AD1152], for which the toxicity result with patients [1] (phase I) is recorded as “neutropenia as the only significant toxicity”. Further, the “patients with significant disease stabilization” value in the series with patients [1] (phase I (ASCO 2008 abstract #3008)) is given as 5 of 12.
Consider `Cc1cc(Nc2ncc(F)c(NC3C4C=CC(C4)C3C(N)=O)n2)ccc1N1CCN(C)CC1` (stereo not shown) [AS703569], for which, in the series with patients [2], the toxicities result is “tolerable toxicities”.
Consider `C=CCc1ccc(O)c(OC)c1` [Eugenol], for which the “E2F1 targeting and killing of melanoma cells” value in the series on melanoma cells was “target E2F1 and kill melanoma cells”.
For the compound `O=C(O)c1ccc(Nc2ncc3c(n2)-c2ccc(Cl)cc2C(c2c(F)cccc2F)=NC3)cc1` [MLN8054], the “Aurora A kinase activity” value at Aurora A [3] is recorded as “inhibits recombinant Aurora A kinase activity”. For the same compound, the “duration of tumor growth inhibition” value in series [4] (after end of treatment) is “sustained after discontinuing MLN8054 treatment”. Besides, in [4], the “mitotic accumulation and apoptosis in xenografts” value was “induced mitotic accumulation and apoptosis”; the “tolerability of efficacious doses” value is “well tolerated doses”; the tumor growth entry is on record as “dramatically inhibited”. For the same compound, at Aurora A [5], the “selectivity Aurora A over Aurora B” value is given as “selective for Aurora A over the family member Aurora B”. Further, the toxicities result in the series on patients [2] is “tolerable toxicities”. Besides, in series [6], the “effects on cultured human tumor cells” value was “G2/M accumulation and spindle defects and inhibits proliferation”.
Turning to `COc1cc(Nc2ncc3c(n2)-c2ccc(Cl)cc2C(c2c(F)cccc2OC)=NC3)ccc1C(=O)O` [MLN8237], in series [4], the “mitotic accumulation and apoptosis in xenografts” value is “induced mitotic accumulation and apoptosis”; the “tolerability of efficacious doses” value was “well tolerated doses”; the tumor growth result is reported as “dramatic tumor growth inhibition in all tumor models evaluated”. Moreover, the “accumulation of mitotic cells” value in series [4] (single oral administration) is given as “time dependent accumulation of mitotic cells”. In addition, the “aurora B inhibition” value at aurora B was “did not appreciably inhibit aurora B”. In addition, the pharmacokinetic profile entry in series [7] is “favorable pharmacokinetic profile”. Moreover, the oral bioavailability entry in [7] (po) is on record as “orally bioavailable”. Also, the “effects on cultured human tumor cells” value in [6] was “mitotic spindle abnormalities, mitotic accumulation, inhibition of cell proliferation and apoptosis”.
On to `CC(=O)NCC(=O)N1[C@@H]2CC[C@H]1c1ccc(Nc3ncc(C(F)(F)F)c(NC4CCC4)n3)cc12` [PF-03814735], for which the toxicities entry with patients [2] is listed as “tolerable toxicities”.
In the case of `CO[C@@H](C(=O)N1Cc2n[nH]c(NC(=O)c3ccc(N4CCN(C)CC4)cc3)c2C1)c1ccccc1` [PHA-739358], the toxicities entry with patients [2] is on record as “tolerable toxicities”.
As to `O=C(Nc1cccc(Cl)c1)Nc1ncc(CCNc2ncnc3ccsc23)s1` [SNS-314], the toxicities entry in the series with patients [2] is “tolerable toxicities”.
For the compound `Cc1cc(Nc2cc(N3CCN(C)CC3)nc(Sc3ccc(NC(=O)C4CC4)cc3)n2)[nH]n1` [VX-680], the “effect on cell proliferation, spindle formation, DNA copies, cell death” value with cells was “block cell proliferation, disrupt bipolar spindle formation, and lead to accumulation of cells with 4N or greater numbers of chromosomal DNA copies and eventual cell death”. Besides, the “cell-cycle progression and apoptosis” value with human tumor types was “blocks cell-cycle progression and induces apoptosis”. Besides, the “patients who achieved stable disease” value in the series on patients [8] is “three of 16”. Moreover, in [9] (xenograft models), the “tolerability of efficacious doses” value is on record as “well-tolerated doses”; the tumor regression result was “regression of leukemia, colon and pancreatic tumors”. For the same compound, the tumor growth entry in [9] (xenograft models (Harrington et al. 2004)) is listed as “substantial inhibition of tumor growth”.
As to `COCC[n+]1c2c(n(Cc3cnccn3)c1C)C(=O)c1ccccc1C2=O.[Br-]` [YM155], in the series on solid tumors (phase I), the toxicity result is recorded as “tolerable toxicity”. Besides, in the series with solid tumors (phase I (2008 abstracts #3536, 5135, 8538)), the clinical activity result is listed as “clinical activity in solid tumors”.
As for `COc1cc2c(Nc3ccc(NC(=O)c4ccccc4)cc3)ncnc2cc1OCCCN1CCOCC1` [ZM 447439], the toxicities result in the series with patients [2] is reported as “tolerable toxicities”.
“(D-Arg)9-p19ARF 26-44: small peptide that blocks FOXM1; rrrrrrrrrrKFVRSRRPRTAS-CALAFVN containing nine D-Arg residues at the amino terminus ([dR][dR][dR][dR][dR][dR][dR][dR][dR]KFVRSRRPRTASCALAFVN; not fully specified; printed as rrrrrrrrrrKFVRSRRPRTAS-CALAFVN; UniProt Q64364 26-44, looked up, fragment)”: the “action on FOXM1” value in the series with FOXM1 (Gusarova et al. 2007) is listed as “blocks FOXM1”. Moreover, in the series with FOXM1 (both in vitro and in vivo), the “effects in vitro and in vivo” value is “growth inhibition, reduction in levels of survivin, aurora B kinase, and PLK1 as well as inducing apoptosis”.
